Results reported in patent US20240182531A1, “KV1.3 Blockers” (priority 2021, published 2024).
Read-outs that look alike come from different tables or passages of the source. Where a SMILES comes first, the peptide text is derived from it. Bridges are numbered along the chain shown (N, C = ends). [ ]: non-standard residue; d: D form. Nle = CCCC[C@H](N)C(=O)O

Key:
[1] = target: Rat whole blood (Rattus norvegicus, UniProt P15384); type: cell-based
[2] = target: T1, human Kv1.6 (Homo sapiens, UniProt P17658); test: cell-based
T1 construct: expressed in transfected cells; host or cells: CHO

[3] = target: T2, human Kv1.2 (Homo sapiens, UniProt P16389); test: cell-based
T2 construct: expressed in transfected cells; host or cells: CHO

[4] = target: T3, human Kv1.1 (Homo sapiens, UniProt Q09470); test: cell-based
T3 construct: expressed in transfected cells; host or cells: CHO

[5] = IL-17A release, thapsigargin, 24 Hr, at least 2 replicates
[6] = ratio of patch clamp IC50 values

T2 sequence (P16389 whole entry): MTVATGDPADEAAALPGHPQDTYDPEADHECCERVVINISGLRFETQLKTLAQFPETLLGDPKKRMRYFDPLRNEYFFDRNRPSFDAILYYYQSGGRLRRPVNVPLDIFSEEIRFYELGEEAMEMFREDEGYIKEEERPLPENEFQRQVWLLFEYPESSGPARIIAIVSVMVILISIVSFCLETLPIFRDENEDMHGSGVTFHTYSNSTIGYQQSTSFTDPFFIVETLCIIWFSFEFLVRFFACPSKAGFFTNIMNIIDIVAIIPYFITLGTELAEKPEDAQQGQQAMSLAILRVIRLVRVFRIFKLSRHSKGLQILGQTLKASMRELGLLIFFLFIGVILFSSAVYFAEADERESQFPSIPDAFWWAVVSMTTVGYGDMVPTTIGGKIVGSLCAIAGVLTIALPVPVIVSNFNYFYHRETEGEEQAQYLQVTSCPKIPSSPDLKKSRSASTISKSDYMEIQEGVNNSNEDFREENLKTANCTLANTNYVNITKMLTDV
T3 sequence (Q09470 whole entry): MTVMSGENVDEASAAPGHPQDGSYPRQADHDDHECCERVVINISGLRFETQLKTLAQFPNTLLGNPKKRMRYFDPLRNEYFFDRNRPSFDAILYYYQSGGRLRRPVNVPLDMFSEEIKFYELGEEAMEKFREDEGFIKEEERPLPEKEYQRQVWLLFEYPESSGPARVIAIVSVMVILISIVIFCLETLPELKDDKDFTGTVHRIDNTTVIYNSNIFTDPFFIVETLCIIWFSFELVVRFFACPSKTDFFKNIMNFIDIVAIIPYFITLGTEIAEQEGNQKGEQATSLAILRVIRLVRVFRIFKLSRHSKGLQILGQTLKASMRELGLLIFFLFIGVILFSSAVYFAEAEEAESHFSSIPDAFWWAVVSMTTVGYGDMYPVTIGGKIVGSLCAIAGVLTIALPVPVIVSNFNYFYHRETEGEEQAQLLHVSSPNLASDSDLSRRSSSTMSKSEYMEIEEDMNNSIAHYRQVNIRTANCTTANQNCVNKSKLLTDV
T1 sequence (P17658 whole entry): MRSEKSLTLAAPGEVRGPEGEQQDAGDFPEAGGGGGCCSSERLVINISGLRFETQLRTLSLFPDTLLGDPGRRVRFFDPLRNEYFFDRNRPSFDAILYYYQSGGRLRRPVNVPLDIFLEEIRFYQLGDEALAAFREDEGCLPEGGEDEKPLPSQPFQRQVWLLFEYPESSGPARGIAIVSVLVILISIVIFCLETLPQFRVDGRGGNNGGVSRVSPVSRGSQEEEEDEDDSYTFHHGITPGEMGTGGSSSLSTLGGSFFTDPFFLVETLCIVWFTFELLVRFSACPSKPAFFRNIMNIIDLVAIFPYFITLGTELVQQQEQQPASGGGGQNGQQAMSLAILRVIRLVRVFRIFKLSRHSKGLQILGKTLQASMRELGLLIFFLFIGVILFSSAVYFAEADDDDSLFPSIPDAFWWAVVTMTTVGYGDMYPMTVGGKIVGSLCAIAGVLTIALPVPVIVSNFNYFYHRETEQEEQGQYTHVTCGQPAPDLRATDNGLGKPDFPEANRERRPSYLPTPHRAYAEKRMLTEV
Sequence of Rat whole blood (P15384 whole entry): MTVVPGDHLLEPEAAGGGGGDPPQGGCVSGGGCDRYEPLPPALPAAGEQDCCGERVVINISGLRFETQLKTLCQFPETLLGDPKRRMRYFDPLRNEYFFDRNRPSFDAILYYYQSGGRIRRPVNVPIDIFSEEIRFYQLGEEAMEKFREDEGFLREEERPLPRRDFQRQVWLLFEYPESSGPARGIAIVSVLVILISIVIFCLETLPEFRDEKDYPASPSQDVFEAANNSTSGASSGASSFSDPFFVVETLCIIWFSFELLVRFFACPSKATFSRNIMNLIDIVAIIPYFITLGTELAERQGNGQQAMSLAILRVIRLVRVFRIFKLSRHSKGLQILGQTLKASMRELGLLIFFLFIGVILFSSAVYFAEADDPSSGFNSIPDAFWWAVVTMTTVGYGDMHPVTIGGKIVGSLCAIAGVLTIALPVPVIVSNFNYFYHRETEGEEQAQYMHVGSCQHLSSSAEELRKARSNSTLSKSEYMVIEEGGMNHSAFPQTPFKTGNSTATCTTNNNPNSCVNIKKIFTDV

In the case of `CC[C@H](C)[C@@H]1NC(=O)[C@H](C)NC(=O)[C@H](CCCCN)NC(=O)[C@H](CC(C)C)NC(=O)[C@@H]2CSSC[C@@H](C(=O)N[C@@H](Cc3ccc(O)cc3)C(=O)N3CCC[C@H]3C(=O)N[C@@H](CCCNC(=N)N)C(N)=O)NC(=O)[C@H](CCCCN)NC(=O)[C@@H]3CSSC[C@H](NC(=O)[C@H](CCC(=O)O)NC(=O)[C@H](C(C)C)NC(=O)[C@H](CO)NC(=O)[C@H](C)NC(=O)[C@H](CO)NC(=O)[C@@H](NC(=O)[C@H](CCCNC(=N)N)NC(=O)[C@H](CCSC)NC(=O)[C@H](CC(=O)O)NC(=O)[C@H](CCSC)NC(=O)[C@@H](N)CC(N)=O)CSSC[C@H](NC(=O)[C@H](CCCCN)NC(=O)CNC(=O)[C@H](Cc4ccccc4)NC(=O)[C@H]([C@@H](C)CC)NC(=O)[C@H](CO)NC(=O)CNC1=O)C(=O)N[C@@H](CCSC)C(=O)N[C@@H](CC(N)=O)C(=O)N[C@@H](CCCCN)C(=O)N[C@@H](CCCCN)C(=O)N3)C(=O)N[C@@H](C)C(=O)N[C@@H](CCC(N)=O)C(=O)N[C@@H](CCCCN)C(=O)N2` [compound 34] (H-NMDMRCSASVECAQKCLKAIGSIFGKCMNKKCKCYPR-NH2; disulfide 6-27, 12-32, 16-34), the IC50 [1, 5] is reported as 0.41 nM, the “Selectivity ratio Kv1.6/Kv1.3” value [2, 6] is reported as >22000 and the “Selectivity ratio Kv1.2/Kv1.3” value [3, 6] is reported as 4897. For the same molecule, the “Selectivity ratio Kv1.1/Kv1.3” value [4, 6] was >22000.

For `CCCC[C@@H]1NC(=O)[C@@H]2CSSC[C@H](NC(=O)[C@H](CCCNC(=N)N)NC(=O)[C@H](CCCC)NC(=O)[C@H](CC(=O)O)NC(=O)[C@H](CCCC)NC(=O)[C@@H](N)CC(N)=O)C(=O)N[C@@H](CO)C(=O)N[C@@H](Cc3c[nH]cn3)C(=O)N[C@@H](CO)C(=O)N[C@@H](C(C)C)C(=O)N[C@@H](CCC(=O)O)C(=O)N[C@H]3CSSC[C@H](NC(=O)[C@H](CCCCN)NC(=O)[C@H](CCCCN)NC(=O)[C@H](CC(N)=O)NC1=O)C(=O)N[C@@H](CCCCN)C(=O)N[C@H](C(=O)N[C@@H](Cc1ccc(O)cc1)C(=O)N1CCC[C@H]1C(=O)N[C@@H](CCCNC(=N)N)C(N)=O)CSSC[C@H](NC(=O)[C@H](CCCCN)NC(=O)[C@H](CCC(N)=O)NC(=O)[C@H](CCCCN)NC3=O)C(=O)N[C@@H](CC(C)C)C(=O)N[C@@H](CCCCN)C(=O)N[C@@H](C)C(=O)N[C@@H]([C@@H](C)CC)C(=O)NCC(=O)N[C@@H](CO)C(=O)N[C@@H]([C@@H](C)CC)C(=O)N[C@@H](Cc1ccccc1)C(=O)NCC(=O)N[C@@H](CCCCN)C(=O)N2` [compound 51] (H-N[Nle]D[Nle]RCSHSVECKQKCLKAIGSIFGKC[Nle]NKKCKCYPR-NH2; disulfide 6-27, 12-32, 16-34), the IC50 [1, 5] was 0.83 nM, the “Selectivity ratio Kv1.6/Kv1.3” value [2, 6] was 1134 and the “Selectivity ratio Kv1.2/Kv1.3” value [3, 6] was 1438. For the same molecule, the “Selectivity ratio Kv1.1/Kv1.3” value [4, 6] was >5600.

For `CCCC[C@@H]1NC(=O)[C@@H]2CSSC[C@H](NC(=O)[C@@H](N)CCCNC(=N)N)C(=O)N[C@@H](CO)C(=O)N[C@@H](C)C(=O)N[C@@H](CO)C(=O)N[C@@H](C(C)C)C(=O)N[C@@H](CCC(=O)O)C(=O)N[C@H]3CSSC[C@H](NC(=O)[C@H](CCCCN)NC(=O)[C@H](CCCCN)NC(=O)[C@H](CC(N)=O)NC1=O)C(=O)N[C@@H](CCCCN)C(=O)N[C@H](C(=O)N[C@@H](Cc1ccc(O)cc1)C(=O)N1CCC[C@H]1C(=O)N[C@@H](CCCNC(=N)N)C(N)=O)CSSC[C@H](NC(=O)[C@H](CCCCN)NC(=O)[C@H](CCC(N)=O)NC(=O)[C@H](CCCCN)NC3=O)C(=O)N[C@@H](CC(C)C)C(=O)N[C@@H](CCCCN)C(=O)N[C@@H](C)C(=O)N[C@@H]([C@@H](C)CC)C(=O)NCC(=O)N[C@@H](CO)C(=O)N[C@@H]([C@@H](C)CC)C(=O)N[C@@H](Cc1ccccc1)C(=O)NCC(=O)N[C@@H](CCCCN)C(=O)N2` [compound 100] (H-RCSASVECKQKCLKAIGSIFGKC[Nle]NKKCKCYPR-NH2; disulfide 2-23, 8-28, 12-30), the IC50 [1, 5] was 0.52 nM, the “Selectivity ratio Kv1.6/Kv1.3” value [2, 6] was 3290 and the “Selectivity ratio Kv1.2/Kv1.3” value [3, 6] was 708. The “Selectivity ratio Kv1.1/Kv1.3” value [4, 6] was >7600.

With `CCCC[C@@H]1NC(=O)[C@@H]2CSSC[C@H](NC(=O)[C@H](CCCNC(=N)N)NC(=O)[C@H](CCCC)NC(=O)[C@H](CC(=O)O)NC(=O)[C@H](CCCC)NC(=O)[C@@H](N)CC(N)=O)C(=O)N[C@@H](CO)C(=O)N[C@@H](C)C(=O)N[C@@H](CO)C(=O)N[C@@H](CCCCN)C(=O)N[C@@H](CCC(=O)O)C(=O)N[C@H]3CSSC[C@H](NC(=O)[C@H](CCCCN)NC(=O)[C@H](CCCCN)NC(=O)[C@H](CC(N)=O)NC1=O)C(=O)N[C@@H](CCCCN)C(=O)N[C@H](C(=O)N[C@@H](Cc1ccc(O)cc1)C(=O)N1CCC[C@H]1C(=O)N[C@@H](CCCNC(=N)N)C(N)=O)CSSC[C@H](NC(=O)[C@H](CCCCN)NC(=O)[C@H](CCC(N)=O)NC(=O)[C@H](CCCCN)NC3=O)C(=O)N[C@@H](CC(C)C)C(=O)N[C@@H](CCCCN)C(=O)N[C@@H](C)C(=O)N[C@@H]([C@@H](C)CC)C(=O)NCC(=O)N[C@@H](CO)C(=O)N[C@@H]([C@@H](C)CC)C(=O)N[C@@H](Cc1ccccc1)C(=O)NCC(=O)N[C@@H](CCCCN)C(=O)N2` [compound 63] (H-N[Nle]D[Nle]RCSASKECKQKCLKAIGSIFGKC[Nle]NKKCKCYPR-NH2; disulfide 6-27, 12-32, 16-34) the IC50 [1, 5] was 0.68 nM, the “Selectivity ratio Kv1.6/Kv1.3” value [2, 6] was 3929 and the “Selectivity ratio Kv1.2/Kv1.3” value [3, 6] was 587. For the same molecule, the “Selectivity ratio Kv1.1/Kv1.3” value [4, 6] was >9600.

For `CCCC[C@@H]1NC(=O)[C@@H]2CSSC[C@H](NC(=O)[C@H](CCCNC(=N)N)NC(=O)[C@H](CCCC)NC(=O)[C@H](CC(=O)O)NC(=O)[C@H](CCCC)NC(=O)[C@@H](N)CC(N)=O)C(=O)N[C@@H](CO)C(=O)N[C@@H](C)C(=O)N[C@@H](CO)C(=O)N[C@@H](C(C)C)C(=O)N[C@@H](CCC(=O)O)C(=O)N[C@H]3CSSC[C@H](NC(=O)[C@H](CCCCN)NC(=O)[C@H](CCCCN)NC(=O)[C@H](CC(N)=O)NC1=O)C(=O)N[C@@H](CCCCN)C(=O)N[C@H](C(=O)N[C@@H](Cc1ccc(O)cc1)C(=O)N1CCC[C@H]1C(=O)N[C@@H](CCCNC(=N)N)C(N)=O)CSSC[C@H](NC(=O)[C@H](CCCCN)NC(=O)[C@H](CCC(N)=O)NC(=O)[C@H](CCCCN)NC3=O)C(=O)N[C@@H](CC(C)C)C(=O)N[C@@H](CCCCN)C(=O)N[C@@H](C)C(=O)N[C@@H]([C@@H](C)CC)C(=O)NCC(=O)N[C@@H](CO)C(=O)N1CCC[C@H]1C(=O)N[C@@H](Cc1ccccc1)C(=O)NCC(=O)N[C@@H](CCCCN)C(=O)N2` [compound 62] (H-N[Nle]D[Nle]RCSASVECKQKCLKAIGSPFGKC[Nle]NKKCKCYPR-NH2; disulfide 6-27, 12-32, 16-34), the IC50 [1, 5] was 0.44 nM, the “Selectivity ratio Kv1.6/Kv1.3” value [2, 6] was 9102 and the “Selectivity ratio Kv1.2/Kv1.3” value [3, 6] was 1740. For the same molecule, the “Selectivity ratio Kv1.1/Kv1.3” value [4, 6] was >11600.

For `CC[C@H](C)[C@@H]1NC(=O)[C@H](C)NC(=O)[C@H](CCCCN)NC(=O)[C@H](CC(C)C)NC(=O)[C@@H]2CSSC[C@@H](C(=O)N[C@@H](Cc3ccc(O)cc3)C(=O)N3CCC[C@H]3C(=O)N[C@@H](CCCNC(=N)N)C(N)=O)NC(=O)[C@H](CCCCN)NC(=O)[C@@H]3CSSC[C@H](NC(=O)[C@H](CCC(N)=O)NC(=O)[C@H](C(C)C)NC(=O)[C@H](CO)NC(=O)[C@H](C)NC(=O)[C@H](CO)NC(=O)[C@@H](NC(=O)[C@H](CCCNC(=N)N)NC(=O)[C@H](CCSC)NC(=O)[C@H](CC(=O)O)NC(=O)[C@H](CCSC)NC(=O)[C@@H](N)CC(N)=O)CSSC[C@H](NC(=O)[C@H](CCCCN)NC(=O)CNC(=O)[C@H](Cc4ccccc4)NC(=O)[C@H]([C@@H](C)CC)NC(=O)[C@H](CO)NC(=O)CNC1=O)C(=O)N[C@@H](CCSC)C(=O)N[C@@H](CC(N)=O)C(=O)N[C@@H](CCCCN)C(=O)N[C@@H](CCCCN)C(=O)N3)C(=O)N[C@@H](CCCCN)C(=O)N[C@@H](CCC(N)=O)C(=O)N[C@@H](CCCCN)C(=O)N2` [compound 32] (H-NMDMRCSASVQCKQKCLKAIGSIFGKCMNKKCKCYPR-NH2; disulfide 6-27, 12-32, 16-34), the IC50 [1, 5] was 0.53 nM, the “Selectivity ratio Kv1.6/Kv1.3” value [2, 6] was 1272 and the “Selectivity ratio Kv1.2/Kv1.3” value [3, 6] was 83. For the same molecule, the “Selectivity ratio Kv1.1/Kv1.3” value [4, 6] was >15200.

For `CCCC[C@@H]1NC(=O)[C@@H]2CSSC[C@H](NC(=O)[C@H](CCCNC(=N)N)NC(=O)[C@H](CCCC)NC(=O)[C@H](CCC(=O)O)NC(=O)[C@@H](NC(=O)[C@@H]3CCCN3)[C@@H](C)CC)C(=O)N[C@@H](CO)C(=O)N[C@@H](C)C(=O)N[C@@H](CO)C(=O)N[C@@H](C(C)C)C(=O)N[C@@H](CCC(=O)O)C(=O)N[C@H]3CSSC[C@H](NC(=O)[C@H](CCCCN)NC(=O)[C@H](CCCCN)NC(=O)[C@H](CC(N)=O)NC1=O)C(=O)N[C@@H](CCCCN)C(=O)N[C@H](C(=O)N[C@@H](Cc1ccc(O)cc1)C(=O)N1CCC[C@H]1C(=O)N[C@@H](CCCNC(=N)N)C(=O)O)CSSC[C@H](NC(=O)[C@H](CCCCN)NC(=O)[C@H](CCC(N)=O)NC(=O)[C@H](CCCCN)NC3=O)C(=O)N[C@@H](CC(C)C)C(=O)N[C@@H](CCCCN)C(=O)N[C@@H](C)C(=O)N[C@@H]([C@@H](C)CC)C(=O)NCC(=O)N[C@@H](CO)C(=O)N[C@@H]([C@@H](C)CC)C(=O)N[C@@H](Cc1ccccc1)C(=O)NCC(=O)N[C@@H](CCCCN)C(=O)N2` [compound 92] (H-PIE[Nle]RCSASVECKQKCLKAIGSIFGKC[Nle]NKKCKCYPR-OH; disulfide 6-27, 12-32, 16-34), the IC50 [1] was 1.8 nM, the “Selectivity ratio Kv1.6/Kv1.3” value [2] was >7800 and the “Selectivity ratio Kv1.2/Kv1.3” value [3] was 4561. The “Selectivity ratio Kv1.1/Kv1.3” value [4] was >7800.
